Measurements reported in BindingDB's records for doi:10.7270/Q25M67W6 (n/a, 1992).

Tests used:
[1] = biological target: Serine protease 1 (Homo sapiens, UniProt P07477); test: Rate constant of deacylation for trypsin
[2] = biological target: Urokinase-type plasminogen activator (Homo sapiens, UniProt P00749); test: Rate constant of deacylation for Urokinase-type plasminogen activator
[3] = biological target: Prothrombin (Homo sapiens, UniProt P00734); test: Rate constant of deacylation for thrombin

Chain of Serine protease 1 (P07477 whole entry): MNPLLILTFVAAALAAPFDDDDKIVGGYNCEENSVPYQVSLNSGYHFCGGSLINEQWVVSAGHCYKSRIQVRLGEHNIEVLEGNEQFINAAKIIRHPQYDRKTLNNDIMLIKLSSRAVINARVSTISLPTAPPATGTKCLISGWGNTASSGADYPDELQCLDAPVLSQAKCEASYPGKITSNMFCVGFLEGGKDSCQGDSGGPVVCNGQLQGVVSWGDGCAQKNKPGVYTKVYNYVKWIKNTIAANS

Compound	koff [1] [s⁻¹]	koff [2] [s⁻¹]	koff [3] [s⁻¹]
C=C1CC(c2ccc(NC(=N)N)cc2)CC(=C)O1	3.3e-05	0.00015	–
C=C1CC(c2ccc(NC(=N)N)cc2)C/C(=C\I)O1 (stereo not drawn)	0.000333	–	–
C=C1O/C(=C/I)C[C@H](c2ccc(NC(=N)N)cc2)[C@H]1NC(=O)c1ccccc1	8.3e-05	1.3e-05	–

Further lines, results first:

koff [1] [s⁻¹]	koff [2] [s⁻¹]	koff [3] [s⁻¹]	Compound
–	0.000733	0.0001	C=C1CCC(c2ccc(CNC(=N)N)cc2)C(=O)O1 (stereo not drawn)
–	–	0.000217	N=C(N)NCc1ccc(C2CC/C(=C\I)OC2=O)cc1 (stereo not drawn)
